# Legend:
# [1] = biological target: PYK2 (Homo sapiens (Human), UniProt Q14289); experiment: Biochemical assay for PYK2 activity (LANCE TR-FRET, ULight-poly Glu,Ala,Tyr substrate); details: GST-tagged PYK2, 40 min reaction
# Description: (§1) Biochemical Assay for FAK/Pyk2 Activity
# (§2) GST-tagged FAK was purchased from Invitrogen (PV3832). GST-tagged PYK2 was purchased from Invitrogen (PV4567). The activity of FAK/PYK2 was measured by monitoring the phosphorylation of a fluorophore labeled ULight-poly Glu, Ala, Tyr (1:1:1) peptide substrate from Perkin Elmer (TRF0101) in the presence of ATP. The phosphorylated tyrosine residue was recognized by a LANCE Europium chelate labeled anti-phosphotyrosine (PY20) antibody from Perkin Elmer (AD0066). This brought the fluorophore and europium chelate in close proximity ([…]) that upon excitation at 320 nm by an Envision (PerkinElmer), energy can be transferred from the donor Europium chelate to the acceptor fluorophore. […] The strength of the signal was, therefore, directly proportional to the FAK/PYK2 activity.
# (§3) To measure inhibitory activity of FAK/PYK2 inhibitors, compounds were first prepare as a 1 mM stock in 100% DMSO and 3-fold serial dilution was performed in a 96-well plate (Corning, 3897) to generate 12 different concentration of 100× stock. A 5 μl of 100× stock of each concentration was added to wells containing 95 μl of 1× reaction buffer (40 mM Tris, pH7.5, […], 1 mM DTT and 1 mM CHAPS) to generate 5× stock. Then 2 μl of 5× stock of each concentration was added to a 384 wells-OptiPlate (PerkinElmer, 6007299).
# (§4) For PYK2, 5 μl of 2 nM PYK2 and 1.5 μl of 666 nM ULight-poly Glu, Ala, Tyr (1:1:1) peptide substrate, prepared in above reaction buffer, were added to each well. The reaction was initiated by adding 1.5 μl of 46.6 μM ATP. The reaction was allowed to proceed for 40 min before being quenched with 5 μl of 40 mM EDTA stop buffer prepared in 1×LANCE detection buffer (PerkinElmer, CR97-100).
# (§5) Upon quenching of the reaction, 5 μl of 8 nM anti-phosphotyrosine antibody was added to each well and incubated for 60 minutes. The plate was measured using an Envision (PerkinElmer) based on the theory mentioned above.
# [2] = biological target: FAK (Homo sapiens (Human), UniProt Q05397); experiment: Biochemical assay for FAK activity (LANCE TR-FRET, ULight-poly Glu,Ala,Tyr substrate); details: GST-tagged FAK, 120 min reaction
# Chain of FAK (Q05397 whole entry): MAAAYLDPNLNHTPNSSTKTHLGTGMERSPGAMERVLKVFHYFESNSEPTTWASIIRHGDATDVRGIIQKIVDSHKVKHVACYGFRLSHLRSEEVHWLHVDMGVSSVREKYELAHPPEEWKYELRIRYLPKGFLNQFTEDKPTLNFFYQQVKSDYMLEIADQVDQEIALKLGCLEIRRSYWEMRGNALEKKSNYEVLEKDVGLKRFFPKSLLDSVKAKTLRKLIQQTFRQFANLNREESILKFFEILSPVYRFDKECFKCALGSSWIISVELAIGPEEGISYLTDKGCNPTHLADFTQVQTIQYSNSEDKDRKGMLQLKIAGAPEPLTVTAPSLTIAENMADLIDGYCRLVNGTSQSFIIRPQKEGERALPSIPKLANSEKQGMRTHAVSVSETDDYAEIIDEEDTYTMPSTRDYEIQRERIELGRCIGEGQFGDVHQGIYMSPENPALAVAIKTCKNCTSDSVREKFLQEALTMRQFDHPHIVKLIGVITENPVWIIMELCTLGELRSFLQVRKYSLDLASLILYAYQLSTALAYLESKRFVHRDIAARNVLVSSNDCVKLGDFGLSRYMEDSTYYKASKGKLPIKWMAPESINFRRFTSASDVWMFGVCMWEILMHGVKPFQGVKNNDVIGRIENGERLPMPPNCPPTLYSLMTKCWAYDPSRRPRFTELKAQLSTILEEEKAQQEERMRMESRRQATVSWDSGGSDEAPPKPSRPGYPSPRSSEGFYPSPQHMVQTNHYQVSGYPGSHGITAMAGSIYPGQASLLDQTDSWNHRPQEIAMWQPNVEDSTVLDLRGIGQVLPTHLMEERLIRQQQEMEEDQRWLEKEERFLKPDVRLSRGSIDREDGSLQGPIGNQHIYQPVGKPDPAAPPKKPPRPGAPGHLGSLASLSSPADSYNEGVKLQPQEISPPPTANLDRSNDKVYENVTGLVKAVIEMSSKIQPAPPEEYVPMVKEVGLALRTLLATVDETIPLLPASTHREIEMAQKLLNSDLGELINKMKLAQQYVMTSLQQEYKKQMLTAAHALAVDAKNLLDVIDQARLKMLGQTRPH
# Description: as §1, §2, §3
# as §4, with “For FAK, 4” for “For PYK2, 5”, “of 2.5” for “of 2”, “nM FAK, 1 ul of 8 μg/μl BSA” for “nM PYK2”, “of 33.3” for “of 46.6”, “for 120” for “for 40”
# as §5
# Chain of PYK2 (Q14289 whole entry): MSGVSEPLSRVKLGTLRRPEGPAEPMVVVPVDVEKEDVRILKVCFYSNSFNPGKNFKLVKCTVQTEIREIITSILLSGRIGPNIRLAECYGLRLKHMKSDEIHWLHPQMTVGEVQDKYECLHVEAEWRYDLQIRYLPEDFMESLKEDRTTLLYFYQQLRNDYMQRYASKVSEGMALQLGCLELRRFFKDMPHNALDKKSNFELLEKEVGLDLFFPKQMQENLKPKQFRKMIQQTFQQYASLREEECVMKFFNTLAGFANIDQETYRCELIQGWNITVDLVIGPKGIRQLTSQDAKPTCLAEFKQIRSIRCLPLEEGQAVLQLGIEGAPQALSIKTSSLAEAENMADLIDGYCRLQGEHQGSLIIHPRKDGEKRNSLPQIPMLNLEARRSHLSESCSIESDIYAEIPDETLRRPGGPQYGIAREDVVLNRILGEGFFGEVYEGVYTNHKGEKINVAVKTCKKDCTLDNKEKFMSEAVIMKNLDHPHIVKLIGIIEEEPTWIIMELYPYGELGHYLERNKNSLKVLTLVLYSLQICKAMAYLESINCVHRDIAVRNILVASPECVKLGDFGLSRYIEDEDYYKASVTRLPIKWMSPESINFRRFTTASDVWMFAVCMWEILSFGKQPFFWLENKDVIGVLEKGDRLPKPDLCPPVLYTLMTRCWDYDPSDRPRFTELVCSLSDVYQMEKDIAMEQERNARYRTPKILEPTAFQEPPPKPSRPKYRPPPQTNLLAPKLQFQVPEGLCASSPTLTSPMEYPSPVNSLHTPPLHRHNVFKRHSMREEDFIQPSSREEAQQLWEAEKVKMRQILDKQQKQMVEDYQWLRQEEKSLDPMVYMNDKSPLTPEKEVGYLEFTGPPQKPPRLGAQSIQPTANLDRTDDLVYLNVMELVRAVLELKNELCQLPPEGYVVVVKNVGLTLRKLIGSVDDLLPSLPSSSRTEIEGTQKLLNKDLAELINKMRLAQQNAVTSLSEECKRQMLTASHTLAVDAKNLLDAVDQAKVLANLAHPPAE
Compound,IC50 [1] [µM],IC50 [2] [µM]
"CNC(=O)c1ccccc1Nc1nc(Nc2cc(OC)c(OC)c(OC)c2)nc2c1C(C)(C)CN2 [Example 130, 2-(5,5-dimethyl-2-(3,4,5-trimethoxyphenylamino)-6,7-dihydro-5H-pyrrolo[2,3-d]pyrimidin-4-ylamino)-N-methylbenzamide]",< 0.2,< 0.2
"COc1cc(N2CCOCC2)ccc1Nc1nc2c(c(Nc3cccc(C)n3)n1)C(C)(C)CN2 [Example 123, N^2-(2-methoxy-4-morpholinophenyl)-5,5-dimethyl-N^4-(6-methylpyridin-2-yl)-6,7-dihydro-5H-pyrrolo[2,3-d]pyrimidine-2,4-diamine]",< 0.5,< 0.2
"Cc1cc(N2CCOCC2)ccc1Nc1nc2c(c(Nc3ccccc3S(=O)(=O)NC(C)C)n1)CCN2 [Example 66, N-isopropyl-2-(2-(2-methyl-4-morpholinophenylamino)-6,7-dihydro-5H-pyrrolo[2,3-d]pyrimidin-4-ylamino)benzenesulfonamide]",< 0.05,< 0.02
"CC(C)NS(=O)(=O)c1ccccc1Nc1nc(Nc2ccc(CO)cc2)nc2c1CCN2 [Example 54, 2-(2-(4-(hydroxymethyl)phenylamino)-6,7-dihydro-5H-pyrrolo[2,3-d]pyrimidin-4-ylamino)-N-isopropylbenzenesulfonamide]",< 0.02,< 0.02
"COc1cc(N2CCC(N3CCN(C)CC3)CC2)ccc1Nc1nc2c(c(Nc3ccccc3S(=O)(=O)NC(C)C)n1)CCN2 [Example 96, N-isopropyl-2-(2-(2-methoxy-4-(4-(4-methylpiperazin-1-yl)piperidin-1-yl)phenylamino)-6,7-dihydro-5H-pyrrolo[2,3-d]pyrimidin-4-ylamino)benzenesulfonamide]",< 0.02,< 0.02
"COCCNS(=O)(=O)c1ccccc1Nc1nc(Nc2ccc(N3CCOCC3)cc2OC)nc2c1CCN2 [Example 50, 2-(2-(2-methoxy-4-morpholinophenylamino)-6,7-dihydro-5H-pyrrolo[2,3-d]pyrimidin-4-ylamino)-N-(2-methoxyethyl)benzenesulfonamide]",< 0.05,< 0.05
"COc1cc(N2CCOCC2)ccc1Nc1nc2c(c(Nc3ccccc3S(=O)(=O)NC(C)C)n1)CCN2 [Example 40, N-isopropyl-2-(2-(2-methoxy-4-morpholinophenylamino)-6,7-dihydro-5H-pyrrolo[2,3-d]pyrimidin-4-ylamino)benzenesulfonamide]",< 0.02,< 0.02
"COc1cc(N2CCOCC2)ccc1Nc1nc2c(c(Nc3ccccc3S(=O)(=O)NC(C)C)n1)C(C)CN2 (stereo not shown) [Example 101, N-isopropyl-2-(2-(2-methoxy-4-morpholinophenylamino)-5-methyl-6,7-dihydro-5H-pyrrolo[2,3-d]pyrimidin-4-ylamino)benzenesulfonamide]",< 0.02,< 0.02
"CC(=O)Nc1ccc(Nc2nc3c(c(Nc4ccccc4S(=O)(=O)NC(C)C)n2)CCN3)cc1 [Example 63, N-(4-(4-(2-(N-isopropylsulfamoyl)phenylamino)-6,7-dihydro-5H-pyrrolo[2,3-d]pyrimidin-2-ylamino)phenyl)acetamide]",< 0.02,< 0.02
"COCCCNS(=O)(=O)c1ccccc1Nc1nc(Nc2ccc(N3CCOCC3)cc2OC)nc2c1C(C)(C)CN2 [Example 114, 2-(2-(2-methoxy-4-morpholinophenylamino)-5,5-dimethyl-6,7-dihydro-5H-pyrrolo[2,3-d]pyrimidin-4-ylamino)-N-(3-methoxypropyl)benzenesulfonamide]",< 0.02,< 0.02
"COc1cc(-n2ncnn2)ccc1Nc1nc2c(c(Nc3ccccc3S(=O)(=O)NC(C)C)n1)CCN2 [Example 88, N-isopropyl-2-(2-(2-methoxy-4-(2H-tetrazol-2-yl)phenylamino)-6,7-dihydro-5H-pyrrolo[2,3-d]pyrimidin-4-ylamino)benzenesulfonamide]",< 0.2,< 0.05
"COc1cc(N2CCOCC2)ccc1Nc1nc2c(c(Nc3ccccc3N(C)S(C)(=O)=O)n1)C(C)CN2 (racemic) [Example 31, (±)-N-(2-(2-(2-methoxy-4-morpholinophenylamino)-5-methyl-6,7-dihydro-5H-pyrrolo[2,3-d]pyrimidin-4-ylamino)phenyl)-N-methylmethanesulfonamide]",< 0.02,< 0.03
"COc1cc(N2CCOCC2)ccc1Nc1nc2c(c(Nc3ccccc3S(=O)(=O)NC3CCCC3)n1)C(C)CN2 (racemic) [Example 28, (±)-N-cyclopentyl-2-(2-(2-methoxy-4-morpholinophenylamino)-5-methyl-6,7-dihydro-5H-pyrrolo[2,3-d]pyrimidin-4-ylamino)benzenesulfonamide]",< 0.05,< 0.3
"CNC(=O)c1cccc(Nc2nc3c(c(Nc4ccccc4S(=O)(=O)NC(C)C)n2)CCN3)c1 [Example 74, 3-(4-(2-(N-isopropylsulfamoyl)phenylamino)-6,7-dihydro-5H-pyrrolo[2,3-d]pyrimidin-2-ylamino)-N-methylbenzamide]",< 0.05,< 0.02

# Next, values leading:
IC50 [1] [µM],IC50 [2] [µM],Compound
< 0.1,< 0.05,"COc1cc(N2CCOCC2)ccc1Nc1nc2c(c(Nc3ccccc3S(=O)(=O)NC3CCCC3)n1)CCN2 [Example 7, N-cyclopentyl-2-(2-(2-methoxy-4-morpholinophenylamino)-6,7-dihydro-5H-pyrrolo[2,3-d]pyrimidin-4-ylamino)benzenesulfonamide]"
< 0.05,< 0.02,"CCN1C(=O)CCCc2c1ccc(Nc1nc3c(c(Nc4ccccc4C(=O)NC)n1)C(C)(C)CN3)c2OC [Example 133, 2-(2-(1-ethyl-6-methoxy-2-oxo-2,3,4,5-tetrahydro-1H-benzo[b]azepin-7-ylamino)-5,5-dimethyl-6,7-dihydro-5H-pyrrolo[2,3-d]pyrimidin-4-ylamino)-N-methylbenzamide]"
< 0.5,< 0.5,"CNC(=O)c1ccccc1Nc1nc(Nc2cccc3c2OCCO3)nc2c1CCN2 [Example 15, 2-(2-(2,3-dihydrobenzo[b][1,4]dioxin-5-ylamino)-6,7-dihydro-5H-pyrrolo[2,3-d]pyrimidin-4-ylamino)-N-methylbenzamide]"
> 1,< 1,"CNC(=O)c1ccc2c(c1Nc1nc(Nc3ccc(N4CCOCC4)cc3OC)nc3c1C(C)(C)CN3)OCO2 [Example 126, 4-(2-(2-methoxy-4-morpholinophenylamino)-5,5-dimethyl-6,7-dihydro-5H-pyrrolo[2,3-d]pyrimidin-4-ylamino)-N-methylbenzo[d][1,3]dioxole-5-carboxamide]"
< 0.02,< 0.02,"CCNS(=O)(=O)c1ccccc1Nc1nc(Nc2ccc(N3CCOCC3)cc2OC)nc2c1C1(CC1)CN2 [Example 139, N-ethyl-2-(2′-(2-methoxy-4-morpholinophenylamino)-6′,7′-dihydrospiro[cyclopropane-1,5′-pyrrolo[2,3-d]pyrimidine]-4′-ylamino)benzenesulfonamide]"
< 1,< 1,"COc1cc(N2CCOCC2)ccc1Nc1nc2c(c(Nc3ccccc3NC(C)=O)n1)CCN2 [Example 9, N-(2-(2-(2-methoxy-4-morpholinophenylamino)-6,7-dihydro-5H-pyrrolo[2,3-d]pyrimidin-4-ylamino)phenyl)acetamide]"
< 0.05,< 0.02,"COc1cc(N2CCCC(O)C2)ccc1Nc1nc2c(c(Nc3ccccc3S(=O)(=O)NC(C)C)n1)CCN2 (stereo not shown) [Example 81, 2-(2-(4-(3-hydroxypiperidin-1-yl)-2-methoxyphenylamino)-6,7-dihydro-5H-pyrrolo[2,3-d]pyrimidin-4-ylamino)-N-isopropylbenzenesulfonamide]"
< 0.1,< 0.2,"COc1cc(N2CCOCC2)ccc1Nc1nc2c(c(Nc3ccccc3S(=O)(=O)NC(C)(C)C)n1)CCN2 [Example 47, N-tert-butyl-2-(2-(2-methoxy-4-morpholinophenylamino)-6,7-dihydro-5H-pyrrolo[2,3-d]pyrimidin-4-ylamino)benzenesulfonamide]"
< 0.02,< 0.02,"COc1cc(N2CCOCC2)ccc1Nc1nc2c(c(Nc3ccccc3S(=O)(=O)NC3CCC3)n1)C(C)(C)CN2 [Example 104, N-cyclobutyl-2-(2-(2-methoxy-4-morpholinophenylamino)-5,5-dimethyl-6,7-dihydro-5H-pyrrolo[2,3-d]pyrimidin-4-ylamino)benzenesulfonamide]"
